O=C(N[C@H](Cc1c[nH]c2ccccc12)C(=O)O)OCC1c2ccccc2-c2ccccc21
Details | solubility (mole fraction)
in acetone, 283.15 K | 0.0377
in acetone, 288.15 K | 0.0387
in acetone, 293.15 K | 0.0407
in acetone, 298.15 K | 0.0432
in acetone, 303.15 K | 0.0456
in acetone, 308.15 K | 0.0483
in acetone, 313.15 K | 0.0533
in acetone, 318.15 K | 0.059
in acetone, 323.15 K | 0.0651
in acetonitrile, 283.15 K | 0.00128
in acetonitrile, 288.15 K | 0.0015
in acetonitrile, 293.15 K | 0.00164
in acetonitrile, 298.15 K | 0.00197
in acetonitrile, 303.15 K | 0.00229
in acetonitrile, 308.15 K | 0.00296
in acetonitrile, 313.15 K | 0.00382
in acetonitrile, 318.15 K | 0.00498
in acetonitrile, 323.15 K | 0.0067
in ethanol, 283.15 K | 0.00439
in ethanol, 288.15 K | 0.00448
in ethanol, 293.15 K | 0.00492
in ethanol, 298.15 K | 0.00538
in ethanol, 303.15 K | 0.00604
in ethanol, 308.15 K | 0.00688
in ethanol, 313.15 K | 0.00763
in ethanol, 318.15 K | 0.00893
in ethanol, 323.15 K | 0.0103
in ethyl acetate, 283.15 K | 0.00673
in ethyl acetate, 288.15 K | 0.00688
in ethyl acetate, 293.15 K | 0.00733
in ethyl acetate, 298.15 K | 0.0079
in ethyl acetate, 303.15 K | 0.00866
in ethyl acetate, 308.15 K | 0.00931
in ethyl acetate, 313.15 K | 0.0101
in ethyl acetate, 318.15 K | 0.0111
in ethyl acetate, 323.15 K | 0.0123
in isobutanol, 283.15 K | 0.00112
in isobutanol, 288.15 K | 0.00118
in isobutanol, 293.15 K | 0.00147
in isobutanol, 298.15 K | 0.0019
in isobutanol, 303.15 K | 0.00222
in isobutanol, 308.15 K | 0.00244
in isobutanol, 313.15 K | 0.00294
in isobutanol, 318.15 K | 0.00363
in isobutanol, 323.15 K | 0.00458
in isopropanol, 283.15 K | 0.00176
in isopropanol, 288.15 K | 0.00206
in isopropanol, 293.15 K | 0.00244
in isopropanol, 298.15 K | 0.00309
in isopropanol, 303.15 K | 0.00365
in isopropanol, 308.15 K | 0.00469
in isopropanol, 313.15 K | 0.00545
in isopropanol, 318.15 K | 0.00642
in isopropanol, 323.15 K | 0.00814
in methanol, 283.15 K | 0.00434
in methanol, 283.16 K | 0.0044
in methanol, 283.17 K | 0.00446
in methanol, 283.18 K | 0.00452
in methanol, 283.19 K | 0.00458
in methanol, 288.15 K | 0.00437
in methanol, 288.16 K | 0.00443
in methanol, 288.17 K | 0.00449
in methanol, 288.18 K | 0.00455
in methyl acetate, 283.15 K | 0.00812
in methyl acetate, 288.15 K | 0.00881
in methyl acetate, 293.15 K | 0.0097
in methyl acetate, 298.15 K | 0.0102
in methyl acetate, 303.15 K | 0.0112
in methyl acetate, 308.15 K | 0.0126
in methyl acetate, 313.15 K | 0.014
in methyl acetate, 318.15 K | 0.0159
in methyl acetate, 323.15 K | 0.0174
in n-butanol, 283.15 K | 0.00247
in n-butanol, 288.15 K | 0.00264
in n-butanol, 293.15 K | 0.00297
in n-butanol, 298.15 K | 0.0034
in n-butanol, 303.15 K | 0.00417
in n-butanol, 308.15 K | 0.0046
in n-butanol, 313.15 K | 0.00552
in n-butanol, 318.15 K | 0.00656
in n-butanol, 323.15 K | 0.00807
in n-butyl acetate, 283.15 K | 0.00381
in n-butyl acetate, 288.15 K | 0.00396
in n-butyl acetate, 293.15 K | 0.0042
in n-butyl acetate, 298.15 K | 0.00449
in n-butyl acetate, 303.15 K | 0.00481
in n-butyl acetate, 308.15 K | 0.00533
in n-butyl acetate, 313.15 K | 0.00581
in n-butyl acetate, 318.15 K | 0.00636
in n-butyl acetate, 323.15 K | 0.00743
in n-propanol, 283.15 K | 0.00255
in n-propanol, 288.15 K | 0.003
in n-propanol, 293.15 K | 0.00336
in n-propanol, 298.15 K | 0.00378
in n-propanol, 303.15 K | 0.00422
in n-propanol, 308.15 K | 0.0049
in n-propanol, 313.15 K | 0.00587
in n-propanol, 318.15 K | 0.00683
in n-propanol, 323.15 K | 0.00825
in n-propyl acetate, 283.15 K | 0.00437
in n-propyl acetate, 288.15 K | 0.00461
in n-propyl acetate, 293.15 K | 0.00506
in n-propyl acetate, 298.15 K | 0.0055
in n-propyl acetate, 303.15 K | 0.00595
in n-propyl acetate, 308.15 K | 0.00658
in n-propyl acetate, 313.15 K | 0.0071
in n-propyl acetate, 318.15 K | 0.00793
in n-propyl acetate, 323.15 K | 0.00903

From BigSolDB 2.1
